“And” between values parts separate entries of the source, which are not always exact repeats. Identical values can stand only once.
Key:
Th9 cells [1] = assay: IL-9+ Th9 cells with oleic acid (S8I-J); format: cell-based, mouse; conditions: representative flow plot, Figure S8I; EpA 10 μM, OA 50 μM
From the text: LXR-α binding site ChREBP binding site USF1 binding site […] 2.1 1.8 2.1 […] 1.9 […] 20 20 0 […] + OA ✱✱✱✱ MIGR1 M Ctrl + OAEpA […] SREBP1 Ctrl SREBP1EpA ✱✱✱✱ ✱✱✱ 3 2 1 0 TNF-α MIGR1 SREBP1 […] SREBP1EpA Figure S8. EpA-associated modulation of lipid metabolism and its impact on Figure S8 Th9 cell function. (A-C) GSEA of RNA-seq data showing intracellular sterol transport (A), sterol transfer activity (B), and long-chain fatty acid transport (C) pathways in control and EpA-treated Th9 cells. […] (K and L) Flow-cytometric analysis of IL-9 expression in Th9 cells transduced with either control (MIGR1) or SREBP1- […]

Th9 cells [2] = assay: Seahorse oxygen consumption rate, mitochondrial stress test (Figure 4F-H); format: cell-based, mouse
Procedure: After stimulation, cells were washed, resuspended in Seahorse XF assay medium (Agilent Technologies; pH 7.40–7.45, catalog 103576-100) and seeded at 5 × 10^5 cells per well in Seahorse XF96 microplates. Plates were centrifuged at 400 × g for 5 minutes to promote adherence and monolayer formation, and all conditions were tested in quadruplicate.
Oxidative phosphorylation was assessed on the same instrument using the XFe96 Mitochondrial Stress Test Kit (Agilent Technologies, catalog 103015-100). Oligomycin (1.5 μM), FCCP (0.5 μM), and rotenone plus antimycin A (0.5 μM each) were injected sequentially to measure OCR as a proxy for oxidative phosphorylation. The mitochondrial stress response was derived from OCR values obtained before and after each injection.

human Th9 CAR T cells = assay: Granzyme B+ CAR Th9 cells from spleens after transfer (S9H-I); format: in vivo, mouse; conditions: for Proportion of GzmB⁺ cells in spleen: Supplemental Figure 9I
Procedure: For xenograft models, M-NSG mice were intravenously inoculated with 1 × 10^6 Raji-CD19 tumor cells. On day 5 after inoculation, 2 × 10^6 CD19-CAR Th9 cells were administered intravenously to evaluate in vivo therapeutic efficacy. Tumor progression and immune cell infiltration were subsequently monitored according to experimental endpoints.
Details regarding staining panels (human and mouse), reagents (including clones and catalog numbers), acquisition settings, compensation/controls, and analysis procedures are provided in Supplemental Methods. […]
Th9 CAR-T c e l l s (n = 3). (H and I) Flow-cytometric analysis of granzyme B⁺ CAR-
Th9 cells isolated from spleens after adoptive transfer, showing representative plots
(H) and quantification (I) (n = 5 mice per group). Statistical analysis was performed
using one-way ANOVA with Tukey’s post hoc test (A and B), or two-tailed unpaired
Student’s t-test (E–G, and I). Repeated data are presented as mean ± SEM. *p < 0.05,
(also on this page, place not known: TP cells ANOV A 30IL-9+ cells (%) Fato Fato Fato Fato A SSC GzmB CtrlEpA MFIofMitoTracker (×102) GF NormalizedATPlevel CtrlEpA 4MFI of Mito Tracker (×105) CtrlEpA0 GzmB+ cells (%) CD4 10 20 IL-9+ cells (%) Day60 10 20 30 Ctrl)

[3] = system: AKT, mTOR, and NF-κB signaling components; assay: Immunoblot of AKT, mTOR and NF-κB components (S7D); format: cell-based, mouse; conditions: result in words
Procedure: Detailed lysis conditions, SDS–PAGE and transfer procedures, primary/secondary antibodies (including clones and catalog numbers), molecular weight markers, ECL detection, and ImageJ (NIH) quantification are described in Supplemental Methods.
MH9A4, Biolegend, Cat. No. 507605, PE/Cy7, clone MH9A4, Biolegend, Cat. No. […]
clone Mab11, Biolegend, Cat. No. 502908), Perforin (APC, clone dG9, Biolegend, Cat.
Flow cytometric acquisition was performed using a BD Fortessa or Cytek Aurora cytometer. Data were analyzed with FlowJo software (v10.8.1 or newer). Fluorescence compensation, isotype-matched controls, and fluorescence-minus-one (FMO) controls were applied as appropriate for multicolor panel validation.
Cells were washed twice with PBS and lysed in 1 × lysis buffer (NCM, Cat. No.
WB3100) supplemented with a protease inhibitor cocktail (Solarbio, Cat. No. P1260).
Protein lysates were separated by SDS-polyacrylamide gel electrophoresis (SDS-PA G E ; YEASEN, Cat. No. 20325ES62) and transferred to PVDF membranes for […]
Membranes were probed with the following primary antibodies: ERK1/2 (clone […]
BioLegend, Cat. No. 369502), MEK1/2 (clone L38C12, Cell Signaling Technology, Cat.
No. 4694S), phospho -MEK1/2 (clone 41G9, Cell Signaling Technology, Cat. No. […]
(Proteintech, Cat. No. 10745 -1-AP), Total Akt (Cell Signaling Technolo gy, Cat. No. […]

Th9 cells [4] = assay: Intracellular ATP assay, luminescence (Figure 4L); format: cell-based, mouse; conditions: result in words
Procedure: Intracellular adenosine triphosphate (ATP) levels were measured using a chemiluminescent ATP assay kit (Beyotime, catalog S0026) according to the manufacturer’s protocol. Briefly, cells were lysed and incubated with the luciferase-based detection reagent, and the resulting luminescent signal was detected using an Infinite M200 multimode microplate reader (TECAN). ATP concentrations were calculated based on a standard curve and normalized to cell number or protein content where applicable.

anteiso-C15 Leu7 surfactin [EpA]
IL-9 gate number (Th9 cells [1]): 77.2
OCR, basal and maximal respiration (Th9 cells [2]; EpA 10 μM, 4 days, result in words): higher basal and maximal respiration
Basal Oxygen Consumption Rate (Th9 cells [2]; Figure 4G, individual replicates, (n = 5), in pmol/min (unit assumed)): 169.53 and 169.91 and 173.53 and 152.33 and 158.62
Max Oxygen Consumption Rate (Th9 cells [2]; Figure 4H, individual replicates, (n = 5), in pmol/min (unit assumed)): 295.4 and 261.85 and 290.65 and 188.88 and 233.85
granzyme B levels in CAR T cells after transfer (human Th9 CAR T cells; result in words): elevated
Proportion of GzmB⁺ cells in spleen (human Th9 CAR T cells; replicate 1): 22.5
Proportion of GzmB⁺ cells in spleen (human Th9 CAR T cells; replicate 2): 28.9
Proportion of GzmB⁺ cells in spleen (human Th9 CAR T cells; replicate 3): 40.8
Proportion of GzmB⁺ cells in spleen (human Th9 CAR T cells; replicate 4): 84.4
Proportion of GzmB⁺ cells in spleen (human Th9 CAR T cells; replicate 5): 47.4
granzyme B+ CAR Th9 gate number (human Th9 CAR T cells; spleens after transfer, representative flow plot, Figure S9H): 47.4
AKT and NF-κB component phosphorylation [3]: not of AKT or NF-κB components
total and phosphorylated mTOR levels [3]: remained unchanged
intracellular ATP levels (Th9 cells [4]): significantly elevated

From PMC12867150, “A fungi-derived cyclic peptide enhances Th9-mediated antitumor immunity by targeting ZAP70 and SREBP1” (The Journal of Clinical Investigation, 2025)
